Source: article PMC8994274, “A proteolysis-targeting chimera molecule selectively degrades ENL and inhibits malignant gene expression and tumor growth” (Journal of Hematology & Oncology, 2022)

Legend:
Molm-13 cells [1] = assay: Antiproliferation assay (XTT), Molm-13
Description: (§2) Proliferation inhibition assays for suspension blood cancer cells were performed using an XTT assay kit (Biotium), following our previous methods [22]. EC50 values were determined using Prism 5 and from at least three independent experiments.

[2] = system: AF9, AFF4, cyclin-T1, DOT1L; assay: Other SEC-related proteins in nucleus of MV4;11 cells (Western blot); type: cell-based; settings: 4 days
Source text: We further investigated how compound 1 affects ENL, AF9 and other proteins of SEC in the cytoplasmic and nuclear compartments, the latter of which are more relevant to the functions of these transcription cofactors. […] Upon treatment of MV4;11 cells with these compounds for 4 days, cytoplasmic and nuclear proteins were separated and subjected to SDS-PAGE/Western blot. […] In addition, nuclear levels of H3K79 methylation, the product of DOT1L catalyzed reactions, were not consistently affected by compound 1.
(§1) 3 × 10^6 cells/well were treated with increasing concentrations of a compound for 1 day, and whole proteins were extracted. Equal amounts of proteins were separated on SDS-PAGE and transferred to PVDF membranes. The blots were probed with primary antibodies, followed by anti-rabbit IgG (Thermo Scientific) secondary antibodies. The primary antibodies against ENL (Cell signaling #14893), AF9 (Novusbio #NB100-1565), DOT1L (Cell signaling #77087), AFF4 (Abcam #ab103586), Cyclin T1 (Cell signaling #81464), H3K79me2 (Cell signaling #5427), H3K79me1 (Cell signaling #9398), Histone H3 (Cell signaling #4499), FLAG (Sigma-Aldrich #F1804), β-Actin (Cell signaling #4970) were used in this study.

Molm-13 cells [3] = assay: Cell differentiation (CD14, CD11b, FACS) in Molm-13 cells; type: cell-based, human; settings: 3 μM for 5 days
Description: Treatment of Molm-13 cells with compound 1 for 7 days at 1 and 3 µM caused significant apoptosis of 22.7% and 67.6%, respectively (Fig. 6c and Additional file 1: Fig. S6).
For Annexin V apoptosis assay, 10^5 cells/mL were incubated with increasing concentrations of a compound for 7 days. Apoptosis was determined using the FITC Annexin V Apoptosis Detection Kit I (BD Bioscience) using the manufacturer’s protocol. For other FACS assays, cells were labeled with fluorochrome-conjugated monoclonal antibodies against human CD14 and CD11b (BD Biosciences) according to the manufacturer’s recommendation. Cells were analyzed using a FACS Calibur (BD Biosciences/Applied Biosystems), and data were processed using the program Flowjo (version7.6.5).

ENL [4] = target: T1, ENL (Homo sapiens, UniProt Q03111); assay: ENL degradation in MV4;11 cells (Western blot); type: cell-based; design: endogenous in cells; host or cells: MV4;11; settings: 500 nM
T1 sequence (Q03111 1-559): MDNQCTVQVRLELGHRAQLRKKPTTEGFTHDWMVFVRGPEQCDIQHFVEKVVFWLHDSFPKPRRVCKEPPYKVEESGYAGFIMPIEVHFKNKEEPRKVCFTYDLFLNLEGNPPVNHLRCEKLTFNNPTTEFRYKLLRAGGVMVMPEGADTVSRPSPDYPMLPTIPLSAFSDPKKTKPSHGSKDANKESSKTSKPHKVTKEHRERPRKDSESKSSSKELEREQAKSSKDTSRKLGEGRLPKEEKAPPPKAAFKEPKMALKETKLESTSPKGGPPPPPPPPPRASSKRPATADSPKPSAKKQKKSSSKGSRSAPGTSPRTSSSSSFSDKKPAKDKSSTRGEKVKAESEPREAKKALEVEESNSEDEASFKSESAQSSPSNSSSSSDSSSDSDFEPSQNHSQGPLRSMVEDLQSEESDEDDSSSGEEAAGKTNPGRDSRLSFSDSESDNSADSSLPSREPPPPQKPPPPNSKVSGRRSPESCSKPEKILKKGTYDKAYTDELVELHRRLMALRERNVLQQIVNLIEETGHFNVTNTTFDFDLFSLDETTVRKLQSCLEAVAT

[5] = system: AF9, AFF4, cyclin-T1 and H3K79me2; assay: ChIP-qPCR, AF9, AFF4, cyclin-T1 and H3K79me2 at gene promoters of Myc and HoxA9; type: cell-based; settings: MV4;11 cells, 500 nM, 4 days
Description: Chromatin immunoprecipitation (ChIP) followed by qPCR was used to further probe the activity of compound 1 in the gene promoters of Myc and HoxA9, two characteristic MLL1 target genes.
Upon treatment with a compound for 4 days, 10^7 MV4;11 cells were cross-linked with 1% formaldehyde at room temperature for 10 min, followed by the addition of 125 mM glycine. Cells were lysed with nuclear lysis buffer and sonicated to ~ 100–1000 bp fragments, which was incubated at 4 °C overnight with an antibody and IgG (C15410206, Diagenode). Protein A/G Magnetic Beads (10 µL, Novus Biologicals) were added and incubated for 2 h. The beads were washed 3 × with RIPA buffer and 2 × with TE buffer. DNA on the beads was eluted for 2 h at 68 °C in 100 μL of an elution buffer (20 mM Tris pH 7.5, 5 mM EDTA, 50 mM NaCl, 1% SDS, 50 μg/mL proteinase K) (2 ×), and purified using a ChIP DNA Clean & Concentrator kit (Novus Biologicals). qPCR was done using the method described above.

Hela cells = assay: Antiproliferation assay, Hela; settings: Homo sapiens, 168 h, read-out: Antiproliferative activity, EC50, Hela
U266 cells = assay: Antiproliferation assay (XTT), U266; settings: Homo sapiens, U-266, 168 h, read-out: Antiproliferative activity, EC50, U266
Description: as §2

ENL [6] = target: T1, ENL; assay: ENL degradation in Molm-13 cells (Western blot); type: cell-based; design: endogenous in cells; settings: MOLM-13, Molm-13 cells, 24 h
Description: In addition, compound 1 efficiently degraded ENL in another MLL1-r leukemia Molm-13 cells (with MLL1-AF9) with DC50 of 47 nM and Dmax of ~ 88% (Fig. 3e). Moreover, significant ENL degradation can be detected in 2 h and depletion occurred within 24 h (Fig. 3f).
as §1

Molm-13 leukemia = assay: Subcutaneous Molm-13 leukemia xenograft in NOD-SCID mice; type: in vivo
Description: In vivo antitumor activity of compound 1 was evaluated in a commonly used mouse model of Molm-13 leukemia. First, in vivo toxicity was assessed in C57BL/6 mice. […] Next, 10^6 Molm-13 cells were injected subcutaneously into NOD-SCID mice, which developed palpable tumors in ~ 1 week and grew rapidly.
All of the mouse studies were conducted in strict compliance with an […] protocol. NOD-SCID mice (6–8 weeks old, from Jackson lab) were obtained and maintained under specific pathogen-free conditions. 10^6 Molm13 cells in medical grade saline were inoculated subcutaneously, and palpable tumors (2–3 mm in diameter) were developed in ~ 1 week. Mice were treated with compound 1 (30 mg/kg/day for 13 days) in saline (0.1 mL) administered intraperitoneally. Tumors were measured every day and estimated by using the formula a × b^2/2.

## C[C@H]1CCCN1Cc1nc2cc(NC(=O)c3ccc4c(cnn4CCCCCCCCNc4cccc5c4C(=O)N(C4CCC(=O)NC4=O)C5=O)c3)ccc2[nH]1 (stereo partly shown) [Compound 1]
Molm-13 cells [1]; Homo sapiens, MOLM-13, 168 h, read-out: EC50 against proliferation of Molm-13 cells
  EC50: 0.32 µM
Molm-13 cells [1]; Molm-13 cells
  Time-dependent activity against cell proliferation: did not inhibit cell proliferation during the first 4 days
[2]
  Levels of AF9, AFF4, cyclin-T1 and DOT1L: not significantly decreased
Molm-13 cells [3]
  Cell differentiation (cells with high levels of CD14 and CD11b): induced cell differentiation
ENL [4]
  Time at which significant ENL degradation can be detected: 2 h
  Time to ENL depletion: ≤ 24 h
[5]
  AF9, AFF4, cyclin-T1 and H3K79me2 at gene promoters of Myc and HoxA9: did not significantly lower down
Hela cells
  EC50: > 50 µM
U266 cells
  EC50: 4.1 ± 1.8 µM
ENL [6]
  Dmax: 88%
Molm-13 leukemia; 30 mg/kg/day for Day 3–15
  Body weight: did not cause significant weight losses
Molm-13 leukemia; 30 mg/kg/day for Day 3–15, intraperitoneally
  Tumor growth: significantly inhibited tumor growth
Molm-13 leukemia; 30 mg/kg/day for Day 3–15, intraperitoneally, p < 0.01, 30 mg/kg/day
  Animal survival: prolonged animal survivals
